Experimental findings from patent US12642809B2, “Fucosylation and immune modulation in cancer” (H. LEE MOFFITT CANCER CENTER AND RESEARCH INSTITUTE, INC., priority 2019, dated 2026) are described below.

SMILES strings stand for the structures.

This assay relates to SW1 tumors. Nature of the assay: CD4+/CD8+ T cell immunodepletion, SW1 model. Type of assay: in vivo, mouse. How it is done:
Single-cell suspensions from tumor and spleen tissue were stained with Live/Dead Zombie NIR (Biolegend, (San Diego, CA)) at 1:1,000 in PBS for 20 min. Cell suspensions were spun down and stained with the following antibodies: APC anti-mouse CD3 (0.5 μg/mL, BD Biosciences (San Jose, CA)), Pacific Blue anti-mouse CD4 ([…], BD Biosciences (San Jose, CA)), BV785 anti-mouse CD8 (0.5 μg/mL, BD Biosciences (San Jose, CA)), PerCP anti-mouse CD25 ([…], BD Biosciences (San Jose, CA)), FITC anti-mouse F4/80 (0.5 μg/mL, BD Biosciences (San Jose, CA)), PeCy7 anti-mouse CD11c (0.5 μg/mL, BD Biosciences (San Jose, CA)), PE anti-mouse NK1.1 (0.5 μg/mL, BD Biosciences (San Jose, CA)), PE anti-mouse DX5 (0.5 μg/mL, BD Biosciences (San Jose, CA)), PerCP-Cy5.5 anti-mouse CD11b (0.5 μg/mL, BD Biosciences (San Jose, CA)). After staining, the cells were washed and fixed (2% formaldehyde), followed by another wash and flow cytometric analysis. The compensation controls were prepared using 0.5 μg/ml. of each antibody with beads UltraComp eBeads™, (ThermoFisher Scientific (Waltham, MA)). All samples were subject to flow cytometric analysis using a LSR Flow Cytometer (BD Biosciences (San Jose, CA)). Flow cytometric data was further analyzed using FlowJo™ analysis software (BD Biosciences (San Jose, CA)). TIL profiles were determined as a measure of TIL subpopulations per gram of tumor tissues or % of total splenocytes.
Three days prior to tumor engraftment, PBS (control) or ˜300 μg α-CD4 (20 mg/kg, for immunodepletion, GK1.5, Bioxcell (West Lebanon, NH)) or α-CD8 (20 mg/kg, for immunodepletion, 2.43, Bioxcell (West Lebanon, NH)) was administered by intraperitoneal injection into the indicated cohorts of mice. Injections of immunodepletion antibody or PBS were continued every 3-4 days until endpoint. Syngeneic recipient C3H/HeN female or C57BL/6 male mice were injected with SW1 or SMI cells, respectively. After approximately 7 days, when the tumors reached ˜150 mm^3, the mice were either supplemented with or without 100 mM L-fucose (Biosynth (Oak Terrace, IL)) via drinking water, which was provided ad libitum. When the tumors reached ˜2 cm^3, the animals were sacrificed, and the tumors were either processed for flow cytometric profiling or for histological analysis as indicated.

In the case of `C[C@H](O)[C@@H](O)[C@@H](O)[C@H](O)C=O` [L-fucose], where the note is “CD4+ T cell-depleted mice”, the “L-fuc-induced tumor suppression and increase in total TILs” value is recorded as “abrogated tumor suppression”; the “increases in intratumoral NK, DC and CD8+ T cells” value is “completely blunted”. The “L-fuc-induced tumor suppression and increase in total TILs” value (CD4+ T cell-depleted mice, listed as L-fuc) is “completely abrogated”. Where the note is “CD8+ T cell-depleted mice”, the reduced tumor growth is roughly 50%. Also, under “control (PBS-injected) mice”, the reduced tumor growth is on record as roughly 60%. Besides, where the note is “control mice”, the “increase in intratumoral CD8+ T cells” value is roughly 10 fold, the “increase in intratumoral DC” value is recorded as roughly 10 fold and the “increase in intratumoral NK cells” value is roughly 3 fold.
